A value given as a limit tells only on which side of the number the result lay.

These results are taken from patent publication US12509449B2, “Anthelmintic compounds comprising a quinoline structure” (Intervet Inc., priority 2019, dated 2025).

For one assay, the system named is Dirofilaria immitis L1. The assay is described as follows: In vitro assay Dirofilaria immitis L1 (microfilaria) motility. The assay is classed as cell-based. Conditions: 72 h, incubation 3 days, read-out: EC50 Dirofilaria immitis L1, reduction in motility. The protocol: Approximately 500 D. immitis microfilaria were added to a microtiter plate containing a nutrient medium and the test compound in DMSO at varying concentrations. After incubation for 3 days, activity was evaluated as reduction in motility as compared to DMSO as negative control. Compounds were tested in duplicates. Based on the concentration response curves EC50 values were calculated.

Assay [1] has as its target T1, human Maxi K channel (BK channel), KCNMA1 (KCa1.1) and beta1 (KCNMB1) subunits (Homo sapiens, UniProt Q12791).
T1 construct: expressed in transfected cells; host or cells: CHO K1
The assay is described as follows: Agonistic activity at the human Maxi K channel (BK channel), membrane potential (FLIPR) in transfected CHO K1 cells. The assay is classed as cell-based. The conditions noted are these: membrane potential dye, 70 mM KCl. The text has this: A CHO K1 cell line was stably transfected with the KCNMA1 (KCa1.1, U11058) and beta1 (KCNMB1) subunits of the human Maxi K channel (Ponte et al, Molecular Pharmacology 2012, 81(4), 567-577).
The complete measurement takes 150 s.

The subject of assay [2] is Acanthocheilonema viteae L1. The assay is described as follows: In vitro assay Acanthocheilonema viteae L1 (microfilaria) motility. The assay is classed as cell-based. The conditions noted are these: 72 h, incubation 3 days, read-out: EC50 Acanthocheilonema viteae L1, reduction in motility. The method, then:
Approximately 500 A. viteae microfilaria were added to a microtiter plate containing a nutrient medium and the test compound in DMSO at varying concentrations. After incubation for 3 days, activity was evaluated as reduction in motility as compared to DMSO as negative control. Compounds were tested in duplicates. Based on the concentration response curves EC50 values were calculated.

In assay [3] the test system is Oesophagostumum dentatum L3. The assay is described as follows: In vitro assay Oesophagostumum dentatum larval stage 3, minimum effective concentration. The class given is cell-based. The conditions noted are these: 20 larvae per well, microscopic examination; read-out: MEC (minimum effective concentration) against Oesophagostumum dentatum L3. The source says: (§1) […] galli (intestinal roundworm of chicken), larval stage 3 (“L3”); and Oesophagostumum dentatum (nodular worm of swine), larval stages 3 and 4 (respectively “L3” and “L4”) where suspended in a nutrient medium and distributed to 96 well plates with 20 larvae per well. The wells were spiked DMSO solutions of the compounds with declining concentration.

Assay [4] has as its system Oesophagostumum dentatum L4. Kind of assay: In vitro assay Oesophagostumum dentatum larval stage 4, minimum effective concentration. The class given is cell-based. Conditions: 20 larvae per well, microscopic examination; read-out: MEC (minimum effective concentration) against Oesophagostumum dentatum L4.
From the text: as §1

The test system of another assay is Ascaridia galli L3. The assay is described as follows: In vitro assay Ascaridia galli larval stage 3, minimum effective concentration. The class given is cell-based. Conditions: 20 larvae per well, microscopic examination, read-out: MEC (minimum effective concentration) against Ascaridia galli L3.
From the text: as §1

Assay [5] concerns the target Caenorhabditis elegans slo-1a (Caenorhabditis elegans, UniProt Q95V25). The assay is described as follows: Agonistic activity at C. elegans Slo-1a, membrane potential (FLIPR) in transfected CHO K1 cells. The conditions noted are these: EC50 agonistic activity at C. elegans Slo-1a, membrane potential dye, 70 mM KCl.
The subject of the next assay is Dirofilaria immitis L4. Kind of assay: In vitro assay Dirofilaria immitis L4 motility. The class given is cell-based. The conditions noted are these: 72 h, 10 larvae L4, incubation 3 days, read-out: EC50 Dirofilaria immitis L4, reduction in motility. The method, then:
10 larvae L4 of D. immitis were added to a microtiter plate containing a nutrient medium and the test compound in DMSO at varying concentrations. After incubation for 3 days, activity was evaluated as reduction in motility as compared to DMSO as negative control. Compounds were tested in duplicates. Based on the concentration response curves EC50 values were calculated.

In another assay the test system is Haemonchus contortus. Kind of assay: In vivo efficacy against Haemonchus contortus in jirds. Also on record: species or system Haemonchus contortus in jirds (Meriones unguiculatus). Conditions: necropsy three days after treatment. The method, then:
Compounds according to this invention were tested in vivo using Haemonchus contortus in jirds (Meriones unguiculatus). The jirds were orally infected with approximately 1500 third-stage larvae of Haemonchus contortus. Ten days after infection, the jirds in the treatment groups were treated once either orally or subcutaneously with compounds at a dose of […]. For treatment, compounds were dissolved in a mixture of 10% Transcutol, 10% Cremophor EL and 80% physiological sodium chloride solution. Three days after treatment, the jirds were necropsied, and the larvae burden in the stomach was determined. The efficacy was defined as the reduction of the mean larvae count in the infected jirds of the treatment group in comparison to the infected jirds in an untreated control group (negative control).

T1 sequence (Q12791 1-1178 isoform Q12791-5): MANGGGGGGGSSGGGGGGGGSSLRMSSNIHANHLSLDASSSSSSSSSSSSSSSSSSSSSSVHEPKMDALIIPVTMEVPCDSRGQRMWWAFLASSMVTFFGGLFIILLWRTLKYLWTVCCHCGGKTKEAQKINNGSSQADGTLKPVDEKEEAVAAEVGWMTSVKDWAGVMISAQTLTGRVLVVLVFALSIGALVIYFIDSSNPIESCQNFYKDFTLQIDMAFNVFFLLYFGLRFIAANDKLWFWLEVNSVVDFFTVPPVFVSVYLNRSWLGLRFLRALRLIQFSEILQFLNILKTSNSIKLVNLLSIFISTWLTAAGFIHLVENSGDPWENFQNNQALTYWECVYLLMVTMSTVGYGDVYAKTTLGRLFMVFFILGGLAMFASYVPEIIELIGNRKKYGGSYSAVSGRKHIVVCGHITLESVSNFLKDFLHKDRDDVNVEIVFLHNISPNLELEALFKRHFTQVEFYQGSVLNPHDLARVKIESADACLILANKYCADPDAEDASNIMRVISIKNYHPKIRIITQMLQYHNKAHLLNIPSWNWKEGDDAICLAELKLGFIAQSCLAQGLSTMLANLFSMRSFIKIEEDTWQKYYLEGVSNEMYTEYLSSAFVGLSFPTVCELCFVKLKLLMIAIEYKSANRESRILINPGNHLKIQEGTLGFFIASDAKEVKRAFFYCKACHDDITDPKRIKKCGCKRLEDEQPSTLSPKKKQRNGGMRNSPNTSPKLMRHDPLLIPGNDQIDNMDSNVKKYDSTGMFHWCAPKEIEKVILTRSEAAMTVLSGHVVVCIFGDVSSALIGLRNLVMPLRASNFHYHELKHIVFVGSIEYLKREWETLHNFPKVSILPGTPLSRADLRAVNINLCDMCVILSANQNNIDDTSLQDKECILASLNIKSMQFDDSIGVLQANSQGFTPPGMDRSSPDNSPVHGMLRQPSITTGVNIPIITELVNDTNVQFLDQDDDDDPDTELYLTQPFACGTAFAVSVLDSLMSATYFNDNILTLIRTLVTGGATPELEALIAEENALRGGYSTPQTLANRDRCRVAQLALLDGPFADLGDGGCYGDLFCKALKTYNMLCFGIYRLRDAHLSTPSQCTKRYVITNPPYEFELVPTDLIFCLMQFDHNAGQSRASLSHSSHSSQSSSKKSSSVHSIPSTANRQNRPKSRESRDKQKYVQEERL
T1 sequence (Q16558 whole entry partner): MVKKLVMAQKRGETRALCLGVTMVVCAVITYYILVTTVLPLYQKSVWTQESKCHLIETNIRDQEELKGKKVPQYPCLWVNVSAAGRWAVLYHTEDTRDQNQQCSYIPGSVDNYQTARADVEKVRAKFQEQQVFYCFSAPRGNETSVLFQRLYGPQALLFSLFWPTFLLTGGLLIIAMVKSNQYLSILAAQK
Chain of Caenorhabditis elegans slo-1a (Q95V25 whole entry): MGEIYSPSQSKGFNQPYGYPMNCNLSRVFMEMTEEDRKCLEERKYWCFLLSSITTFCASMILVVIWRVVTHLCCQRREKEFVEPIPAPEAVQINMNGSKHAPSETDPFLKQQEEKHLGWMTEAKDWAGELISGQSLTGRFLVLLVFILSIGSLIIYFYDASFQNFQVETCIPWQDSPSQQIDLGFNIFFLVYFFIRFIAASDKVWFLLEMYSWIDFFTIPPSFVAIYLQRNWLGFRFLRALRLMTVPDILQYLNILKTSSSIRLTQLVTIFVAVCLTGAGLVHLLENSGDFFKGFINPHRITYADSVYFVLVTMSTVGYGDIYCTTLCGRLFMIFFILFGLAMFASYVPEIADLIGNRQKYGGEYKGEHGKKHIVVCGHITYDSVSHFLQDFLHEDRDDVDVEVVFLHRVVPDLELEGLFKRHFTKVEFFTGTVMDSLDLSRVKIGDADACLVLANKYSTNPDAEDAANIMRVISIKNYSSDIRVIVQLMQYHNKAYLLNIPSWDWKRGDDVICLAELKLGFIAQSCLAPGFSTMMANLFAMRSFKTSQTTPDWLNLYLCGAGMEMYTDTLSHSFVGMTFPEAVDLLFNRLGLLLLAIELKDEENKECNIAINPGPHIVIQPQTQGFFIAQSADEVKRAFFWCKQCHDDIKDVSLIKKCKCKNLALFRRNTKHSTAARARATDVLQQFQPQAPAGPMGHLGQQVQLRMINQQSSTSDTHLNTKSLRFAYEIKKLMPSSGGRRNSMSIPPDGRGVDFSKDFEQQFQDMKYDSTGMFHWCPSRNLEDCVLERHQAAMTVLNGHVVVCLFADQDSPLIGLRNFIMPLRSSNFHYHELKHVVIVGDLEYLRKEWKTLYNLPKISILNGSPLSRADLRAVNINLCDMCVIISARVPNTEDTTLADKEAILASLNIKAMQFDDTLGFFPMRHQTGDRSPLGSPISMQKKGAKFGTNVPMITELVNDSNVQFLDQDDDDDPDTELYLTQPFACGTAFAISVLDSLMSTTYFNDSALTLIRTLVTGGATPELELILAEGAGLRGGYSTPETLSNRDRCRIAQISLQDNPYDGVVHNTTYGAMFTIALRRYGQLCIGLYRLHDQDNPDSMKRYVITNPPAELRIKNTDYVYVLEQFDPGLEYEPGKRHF

The EC50 is the midpoint of the concentration-response curve. On to `O=C(Nc1cnc2c(-c3cc(Cl)cc(Cl)c3)cccc2c1O)C1CCCc2ccccc21` (stereo not shown) [Compound 63], for which the concentration for a half-maximal effect (EC50) is less than 10 µM with Dirofilaria immitis L1 and more than 30 µM in [1].
As to `CC(C)Oc1c(NC(=O)c2cccc3ccccc23)cnc2c(-c3cc(Cl)cc(Cl)c3)c(F)ccc12` [Compound 147], the half-maximal effective concentration (EC50) in assay [1] is more than 30 µM; in assay [2], less than 10 µM. Besides, the minimal effective concentration in assay [3] was not above 50 µM.
Consider `COc1cccc(C(C)C(=O)Nc2cnc3c(-c4cccc(Cl)c4Cl)cccc3c2N(C)C)c1` (stereo not shown) [Compound 29], for which the EC50 was less than 10 µM in the assay on Dirofilaria immitis L1, more than 30 µM in assay [1] and less than 10 µM in [5]. For the same molecule, the minimal effective concentration (in [4]; with Ascaridia galli L3) was not above 50 µM each time.
For the molecule `CN(C)c1c(NC(=O)Cc2ccccc2)cnc2c(-c3cc(Cl)cc(Cl)c3)cccc12` [Compound 3], the concentration giving a half-maximal response (EC50) is less than 1000 nM with Dirofilaria immitis L4, more than 30 µM in assay [1] and less than 10 µM in [5]. The minimal effective concentration (in the assay with Ascaridia galli L3; in assay [3]) was not above 50 µM each time.
Consider `CC(C(=O)Nc1cnc2c(-c3cccc(Cl)c3Cl)cccc2c1N(C)C)c1cccc(Cl)c1` (stereo not shown) [Compound 28], for which the concentration for a half-maximal effect (EC50) in the assay with Dirofilaria immitis L1 is less than 10 µM; in assay [1] it was more than 30 µM. Also, the minimal effective concentration (in assay [4]; in the assay on Ascaridia galli L3) was not above 50 µM each time.
`COc1c(NC(=O)C(C)c2ccccc2)cnc2c(-c3cccc(Cl)c3Cl)cccc12` (stereo not shown) [Compound 11]: the EC50 in the assay with Dirofilaria immitis L1 is less than 10 µM; in [1], more than 30 µM.
As to `CC(C)Oc1c(NC(=O)C2CCOc3ccccc32)cnc2c(-c3cc(Cl)cc(Cl)c3)c(F)ccc12` (stereo not shown) [Compound 127], the EC50 in assay [1] was more than 30 µM; in assay [2], less than 10 µM. The minimal effective concentration (with Ascaridia galli L3; in assay [3]) was not above 50 µM in each case.
As to `CCN(C(=O)C1CCOc2ccccc21)c1cnc2c(-c3cc(Cl)cc(Cl)c3)cccc2c1N(C)C` (stereo not shown) [Compound 162], the EC50 was more than 30 µM in assay [1] and less than 10 µM in assay [2]. Moreover, the minimal effective concentration (with Ascaridia galli L3; in assay [3]) was not above 50 µM throughout.
With `CCN(C(=O)C1CCOc2ccccc21)c1cnc2c(-c3cc(Cl)cc(Cl)c3)cccc2c1N1CCOCC1` (stereo not shown) [Compound 163], the minimal effective concentration in assay [4] was not above 50 µM. Moreover, the EC50 in [1] was more than 30 µM; in assay [2], less than 10 µM.
With `O=C(Nc1cnc2c(-c3cccc(Cl)c3Cl)c(F)ccc2c1N1CCOCC1)c1cccc2ccccc12` [Compound 151], the “reduction of the Haemonchus contortus count” value in the assay with Haemonchus contortus (administered orally once at 10 mg/kg bw) and with Haemonchus contortus (administered subcutaneously once at 10 mg/kg bw) was “at least 80%” in each case.
